Reference: the kinase profiling compilation of Christmann-Franck et al. (2016)

What was measured:
Assay in all cases: KINOMEscan competition binding
Conditions in all cases: compound 10.0 µM
STK38L (human) = STK38L (human) (UniProt Q9Y2H1)
STK39 (human) = STK39 (human) (UniProt Q9UEW8)
CDK16 (human) = CDK16 (human) (UniProt Q00536)
PRKD3 (human) = PRKD3 (human) (UniProt O94806)
MAP4K2 (human) = MAP4K2 (human) (UniProt Q12851)
CDC42BPA (human) = CDC42BPA (human) (UniProt Q5VT25)
MAPK1 (human) = MAPK1 (human) (UniProt P28482)
PRKCI (human) = PRKCI (human) (UniProt P41743)
CLK2 (human) = CLK2 (human) (UniProt P49760)
TEK (human) = TEK (human) (UniProt Q02763)
TAOK3 (human) = TAOK3 (human) (UniProt Q9H2K8)
BMPR1B (human) = BMPR1B (human) (UniProt O00238)
CDKL5 (human) = CDKL5 (human) (UniProt O76039)
DDR1 (human) = DDR1 (human) (UniProt Q08345)
BRSK2 (human) = BRSK2 (human) (UniProt Q8IWQ3)
TGFBR2 (human) = TGFBR2 (human) (UniProt P37173)
STK35 (human) = STK35 (human) (UniProt Q8TDR2)
MAPK10 (human) = MAPK10 (human) (UniProt P53779)
MAP4K4 (human) = MAP4K4 (human) (UniProt O95819)
MAP3K4 (human) = MAP3K4 (human) (UniProt Q9Y6R4)
MYO3B (human) = MYO3B (human) (UniProt Q8WXR4)
PLK1 (human) = PLK1 (human) (UniProt P53350)
HCK (human) = HCK (human) (UniProt P08631)
CHEK2 (human) = CHEK2 (human) (UniProt O96017)
[1] = tested on: RET (human), P07949 [V804L]
IGF1R (human) = IGF1R (human) (UniProt P08069)
TEC (human) = TEC (human) (UniProt P42680)
LCK (human) = LCK (human) (UniProt P06239)
PDGFRA (human) = PDGFRA (human) (UniProt P16234)
MKNK1 (human) = MKNK1 (human) (UniProt Q9BUB5)
MAPK3 (human) = MAPK3 (human) (UniProt P27361)
MAPK6 (human) = MAPK6 (human) (UniProt Q16659)
CPK1 (P.falciparum) = tested on: CPK1 (P.falciparum)
INSRR (human) = INSRR (human) (UniProt P14616)
MAPK12 (human) = MAPK12 (human) (UniProt P53778)
CDKL1 (human) = CDKL1 (human) (UniProt Q00532)
RPS6KA4 KD2 (human) = RPS6KA4 KD2 (human) (UniProt O75676)
CAMK1G (human) = CAMK1G (human) (UniProt Q96NX5)
CAMK2G (human) = CAMK2G (human) (UniProt Q13555)
CSNK1G2 (human) = CSNK1G2 (human) (UniProt P78368)

Chain of PDGFRA (human) (P16234 whole entry, looked up): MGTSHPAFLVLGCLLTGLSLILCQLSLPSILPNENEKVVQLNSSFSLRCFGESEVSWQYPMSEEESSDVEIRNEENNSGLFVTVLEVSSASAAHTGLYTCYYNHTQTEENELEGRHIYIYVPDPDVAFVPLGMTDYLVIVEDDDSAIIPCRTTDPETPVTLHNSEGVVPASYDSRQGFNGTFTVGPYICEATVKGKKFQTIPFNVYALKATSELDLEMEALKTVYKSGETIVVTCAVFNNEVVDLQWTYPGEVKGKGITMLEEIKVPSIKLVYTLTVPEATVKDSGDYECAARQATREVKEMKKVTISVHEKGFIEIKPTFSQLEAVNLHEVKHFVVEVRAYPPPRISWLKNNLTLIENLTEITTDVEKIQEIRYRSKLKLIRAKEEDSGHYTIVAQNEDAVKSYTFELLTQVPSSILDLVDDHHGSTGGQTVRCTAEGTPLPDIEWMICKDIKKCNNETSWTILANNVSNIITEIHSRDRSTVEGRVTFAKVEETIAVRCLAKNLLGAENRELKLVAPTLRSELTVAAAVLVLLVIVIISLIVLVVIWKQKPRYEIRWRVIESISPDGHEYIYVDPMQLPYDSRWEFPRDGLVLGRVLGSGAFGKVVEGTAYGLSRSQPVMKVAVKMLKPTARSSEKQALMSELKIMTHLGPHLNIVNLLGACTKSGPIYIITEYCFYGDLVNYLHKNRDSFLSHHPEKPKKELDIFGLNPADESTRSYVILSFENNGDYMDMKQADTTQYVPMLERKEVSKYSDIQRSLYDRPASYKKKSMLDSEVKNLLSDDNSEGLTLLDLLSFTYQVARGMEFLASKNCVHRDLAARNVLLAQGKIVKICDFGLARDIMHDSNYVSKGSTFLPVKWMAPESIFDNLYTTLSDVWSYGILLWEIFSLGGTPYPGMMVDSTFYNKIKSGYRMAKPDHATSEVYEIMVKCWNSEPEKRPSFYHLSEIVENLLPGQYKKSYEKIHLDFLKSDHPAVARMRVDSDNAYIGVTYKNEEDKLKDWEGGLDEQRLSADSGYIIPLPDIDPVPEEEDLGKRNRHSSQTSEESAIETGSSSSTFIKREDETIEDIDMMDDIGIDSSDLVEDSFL
Chain of MAP4K2 (human) (Q12851 whole entry, looked up): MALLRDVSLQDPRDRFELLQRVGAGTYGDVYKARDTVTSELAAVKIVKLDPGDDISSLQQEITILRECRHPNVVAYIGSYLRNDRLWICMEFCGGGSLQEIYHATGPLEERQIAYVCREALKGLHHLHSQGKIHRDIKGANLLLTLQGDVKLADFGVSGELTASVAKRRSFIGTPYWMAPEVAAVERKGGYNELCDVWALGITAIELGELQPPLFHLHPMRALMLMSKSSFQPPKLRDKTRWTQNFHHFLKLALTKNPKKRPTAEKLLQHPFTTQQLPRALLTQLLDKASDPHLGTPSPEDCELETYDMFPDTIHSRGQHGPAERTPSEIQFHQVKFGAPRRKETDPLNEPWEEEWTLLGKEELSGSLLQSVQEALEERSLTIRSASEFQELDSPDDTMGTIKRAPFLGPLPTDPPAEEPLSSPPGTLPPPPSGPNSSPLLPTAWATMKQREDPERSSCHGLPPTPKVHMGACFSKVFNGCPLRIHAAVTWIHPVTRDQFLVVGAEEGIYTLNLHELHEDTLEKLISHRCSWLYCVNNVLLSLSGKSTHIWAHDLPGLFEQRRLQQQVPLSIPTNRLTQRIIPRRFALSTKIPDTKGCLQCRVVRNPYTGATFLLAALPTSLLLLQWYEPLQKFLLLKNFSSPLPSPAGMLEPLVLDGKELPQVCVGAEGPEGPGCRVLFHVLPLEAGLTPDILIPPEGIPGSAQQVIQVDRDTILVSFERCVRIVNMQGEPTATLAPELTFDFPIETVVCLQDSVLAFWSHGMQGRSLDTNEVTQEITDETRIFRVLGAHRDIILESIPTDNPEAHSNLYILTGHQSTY
Chain of DDR1 (human) (Q08345 whole entry, looked up): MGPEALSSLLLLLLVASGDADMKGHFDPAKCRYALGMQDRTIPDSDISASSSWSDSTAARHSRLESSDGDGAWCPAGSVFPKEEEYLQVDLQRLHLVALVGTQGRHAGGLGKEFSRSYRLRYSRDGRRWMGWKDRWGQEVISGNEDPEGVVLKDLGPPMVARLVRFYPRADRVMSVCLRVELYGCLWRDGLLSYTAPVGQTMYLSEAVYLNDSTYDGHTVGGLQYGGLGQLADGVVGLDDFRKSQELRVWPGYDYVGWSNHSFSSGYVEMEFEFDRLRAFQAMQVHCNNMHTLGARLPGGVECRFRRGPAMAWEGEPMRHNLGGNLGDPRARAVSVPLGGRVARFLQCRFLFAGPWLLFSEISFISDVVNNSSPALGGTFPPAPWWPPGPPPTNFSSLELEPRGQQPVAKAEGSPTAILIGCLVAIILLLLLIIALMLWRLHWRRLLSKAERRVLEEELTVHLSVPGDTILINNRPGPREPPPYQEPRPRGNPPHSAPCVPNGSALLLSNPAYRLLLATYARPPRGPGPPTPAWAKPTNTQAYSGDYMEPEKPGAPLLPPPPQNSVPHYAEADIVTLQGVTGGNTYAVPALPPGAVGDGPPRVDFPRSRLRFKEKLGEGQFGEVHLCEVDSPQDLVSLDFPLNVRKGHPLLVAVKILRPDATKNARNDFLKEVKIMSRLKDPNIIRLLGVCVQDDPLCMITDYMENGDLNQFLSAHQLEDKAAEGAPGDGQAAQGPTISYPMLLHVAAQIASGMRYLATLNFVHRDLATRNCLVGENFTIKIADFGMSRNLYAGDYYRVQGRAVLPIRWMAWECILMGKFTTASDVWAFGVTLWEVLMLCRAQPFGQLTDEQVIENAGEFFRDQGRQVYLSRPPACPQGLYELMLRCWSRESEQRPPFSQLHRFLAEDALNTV
Chain of MAP3K4 (human) (Q9Y6R4 whole entry, looked up): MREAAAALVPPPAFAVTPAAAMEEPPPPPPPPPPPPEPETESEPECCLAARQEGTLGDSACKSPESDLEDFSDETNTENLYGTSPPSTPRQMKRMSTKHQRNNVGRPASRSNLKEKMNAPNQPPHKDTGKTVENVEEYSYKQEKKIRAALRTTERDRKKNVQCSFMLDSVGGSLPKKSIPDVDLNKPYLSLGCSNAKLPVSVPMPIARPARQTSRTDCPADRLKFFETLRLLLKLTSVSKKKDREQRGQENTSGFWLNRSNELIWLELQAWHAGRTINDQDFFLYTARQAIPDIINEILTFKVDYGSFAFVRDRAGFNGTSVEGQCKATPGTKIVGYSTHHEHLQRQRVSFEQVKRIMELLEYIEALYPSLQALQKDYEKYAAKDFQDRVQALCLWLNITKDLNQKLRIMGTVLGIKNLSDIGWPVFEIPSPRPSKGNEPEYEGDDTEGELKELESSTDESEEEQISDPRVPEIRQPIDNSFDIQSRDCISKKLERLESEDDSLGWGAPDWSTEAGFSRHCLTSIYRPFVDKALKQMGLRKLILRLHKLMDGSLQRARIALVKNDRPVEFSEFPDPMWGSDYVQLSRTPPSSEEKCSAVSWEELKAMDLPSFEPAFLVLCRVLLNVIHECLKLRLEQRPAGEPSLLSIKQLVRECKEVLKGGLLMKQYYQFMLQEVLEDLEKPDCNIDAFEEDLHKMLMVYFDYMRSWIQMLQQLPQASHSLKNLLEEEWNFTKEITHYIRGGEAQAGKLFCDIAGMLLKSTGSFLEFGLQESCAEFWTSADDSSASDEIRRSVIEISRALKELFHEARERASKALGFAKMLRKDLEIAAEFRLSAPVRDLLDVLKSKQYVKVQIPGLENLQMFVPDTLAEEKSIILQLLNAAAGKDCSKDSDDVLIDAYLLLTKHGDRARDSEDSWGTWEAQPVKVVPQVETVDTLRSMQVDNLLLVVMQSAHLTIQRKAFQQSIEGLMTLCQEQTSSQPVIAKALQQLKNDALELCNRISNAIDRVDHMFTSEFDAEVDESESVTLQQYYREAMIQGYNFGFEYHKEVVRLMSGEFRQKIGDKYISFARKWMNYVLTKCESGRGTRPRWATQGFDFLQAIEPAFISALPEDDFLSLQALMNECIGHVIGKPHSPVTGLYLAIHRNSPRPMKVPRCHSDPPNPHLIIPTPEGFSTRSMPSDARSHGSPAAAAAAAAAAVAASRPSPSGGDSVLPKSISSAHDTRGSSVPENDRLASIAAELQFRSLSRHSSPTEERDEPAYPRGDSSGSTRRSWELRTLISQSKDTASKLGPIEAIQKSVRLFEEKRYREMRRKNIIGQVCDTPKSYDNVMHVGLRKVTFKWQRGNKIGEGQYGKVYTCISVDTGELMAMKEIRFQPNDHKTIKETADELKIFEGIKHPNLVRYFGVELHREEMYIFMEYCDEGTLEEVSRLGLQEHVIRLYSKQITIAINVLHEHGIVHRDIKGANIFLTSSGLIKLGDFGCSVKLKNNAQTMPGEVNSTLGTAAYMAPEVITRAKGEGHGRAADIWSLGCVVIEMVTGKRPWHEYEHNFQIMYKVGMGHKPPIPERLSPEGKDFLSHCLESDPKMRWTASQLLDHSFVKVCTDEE
Chain of CDKL1 (human) (Q00532 whole entry, looked up): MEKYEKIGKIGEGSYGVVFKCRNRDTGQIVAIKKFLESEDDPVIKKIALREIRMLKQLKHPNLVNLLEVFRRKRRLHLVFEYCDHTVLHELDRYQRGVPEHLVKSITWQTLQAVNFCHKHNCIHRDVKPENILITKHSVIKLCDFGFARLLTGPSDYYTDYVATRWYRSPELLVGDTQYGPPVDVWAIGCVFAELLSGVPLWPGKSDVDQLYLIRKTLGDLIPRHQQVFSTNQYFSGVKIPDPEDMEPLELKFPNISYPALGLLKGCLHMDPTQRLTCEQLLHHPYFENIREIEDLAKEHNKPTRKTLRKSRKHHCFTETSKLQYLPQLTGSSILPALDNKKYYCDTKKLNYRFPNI

| SMILES | kinase still bound, per cent of control (STK38L (human)) | kinase still bound, per cent of control (STK39 (human)) | kinase still bound, per cent of control (PRKD3 (human)) | kinase still bound, per cent of control (MAP4K2 (human)) | kinase still bound, per cent of control (CDC42BPA (human)) | kinase still bound, per cent of control (MAPK1 (human)) | kinase still bound, per cent of control (PRKCI (human)) | kinase still bound, per cent of control (CLK2 (human)) | kinase still bound, per cent of control (TEK (human)) | kinase still bound, per cent of control (TAOK3 (human)) | kinase still bound, per cent of control (BMPR1B (human)) | kinase still bound, per cent of control (CDKL5 (human)) | kinase still bound, per cent of control (DDR1 (human)) | kinase still bound, per cent of control (BRSK2 (human)) | kinase still bound, per cent of control (TGFBR2 (human)) | kinase still bound, per cent of control (STK35 (human)) | kinase still bound, per cent of control (MAP4K4 (human)) | kinase still bound, per cent of control (MAP3K4 (human)) | kinase still bound, per cent of control (MYO3B (human)) | kinase still bound, per cent of control (PLK1 (human)) | other results |
| --- | --- | --- | --- | --- | --- | --- | --- | --- | --- | --- | --- | --- | --- | --- | --- | --- | --- | --- | --- | --- | --- |
| CCCS(=O)(=O)Nc1ccc(F)c(C(=O)c2c[nH]c3ncc(Cl)cc23)c1F | 71% | 100% | 100% | 74% | 96% | 100% | 100% | 10% | 100% | 61% | 74% | 92% | 1.6% | 86% | 6.6% | 100% | 64% | 92% | 47% | 100% | kinase still bound, per cent of control (CDK16 (human)): 68%; kinase still bound, per cent of control (MAPK10 (human)): 90%; kinase still bound, per cent of control (HCK (human)): 19%; kinase still bound, per cent of control (CHEK2 (human)): 64%; kinase still bound, per cent of control [1]: 96%; kinase still bound, per cent of control (IGF1R (human)): 91%; kinase still bound, per cent of control (TEC (human)): 100%; kinase still bound, per cent of control (LCK (human)): 3.2%; kinase still bound, per cent of control (PDGFRA (human)): 0.2%; kinase still bound, per cent of control (MKNK1 (human)): 100%; kinase still bound, per cent of control (MAPK3 (human)): 100%; kinase still bound, per cent of control (MAPK6 (human)): 100%; kinase still bound, per cent of control (CPK1 (P.falciparum)): 0%; kinase still bound, per cent of control (INSRR (human)): 89%; kinase still bound, per cent of control (MAPK12 (human)): 100%; kinase still bound, per cent of control (CDKL1 (human)): 93%; kinase still bound, per cent of control (RPS6KA4 KD2 (human)): 69%; kinase still bound, per cent of control (CAMK1G (human)): 76%; kinase still bound, per cent of control (CAMK2G (human)): 96% |
| N#C/C(=C1/Nc2ccccc2S1)c1ccnc(NCCc2cccnc2)n1 | 100% | 100% | 84% | 36% | 83% | 84% | 80% | 3.7% | 100% | 24% | 18% | 82% | 100% | 100% | 100% | 85% | 93% | 100% | 100% | 72% | kinase still bound, per cent of control (CDK16 (human)): 44%; kinase still bound, per cent of control (CSNK1G2 (human)): 77%; kinase still bound, per cent of control (HCK (human)): 100%; kinase still bound, per cent of control (CHEK2 (human)): 94%; kinase still bound, per cent of control [1]: 100%; kinase still bound, per cent of control (IGF1R (human)): 100%; kinase still bound, per cent of control (TEC (human)): 92%; kinase still bound, per cent of control (LCK (human)): 100%; kinase still bound, per cent of control (PDGFRA (human)): 100%; kinase still bound, per cent of control (MKNK1 (human)): 97%; kinase still bound, per cent of control (MAPK3 (human)): 100%; kinase still bound, per cent of control (MAPK6 (human)): 26%; kinase still bound, per cent of control (CPK1 (P.falciparum)): 4.2%; kinase still bound, per cent of control (INSRR (human)): 100%; kinase still bound, per cent of control (MAPK12 (human)): 13%; kinase still bound, per cent of control (CDKL1 (human)): 45%; kinase still bound, per cent of control (RPS6KA4 KD2 (human)): 57%; kinase still bound, per cent of control (CAMK1G (human)): 61%; kinase still bound, per cent of control (CAMK2G (human)): 78% |
| CCN(CCO)CCCOc1ccc2c(Nc3cc(CC(=O)Nc4cccc(F)c4)[nH]n3)ncnc2c1 | 100% | 100% | 63% | 29% | 100% | 100% | 96% | 67% | 13% | 100% | 77% | 50% | 12% | 100% | 100% | 85% | 98% | 90% | 100% | 100% | kinase still bound, per cent of control (CSNK1G2 (human)): 76%; kinase still bound, per cent of control (MAPK10 (human)): 41%; kinase still bound, per cent of control (HCK (human)): 31%; kinase still bound, per cent of control (CHEK2 (human)): 100%; kinase still bound, per cent of control [1]: 2%; kinase still bound, per cent of control (IGF1R (human)): 100%; kinase still bound, per cent of control (TEC (human)): 78%; kinase still bound, per cent of control (PDGFRA (human)): 0%; kinase still bound, per cent of control (MKNK1 (human)): 68%; kinase still bound, per cent of control (MAPK3 (human)): 100%; kinase still bound, per cent of control (MAPK6 (human)): 100%; kinase still bound, per cent of control (CPK1 (P.falciparum)): 63%; kinase still bound, per cent of control (INSRR (human)): 76%; kinase still bound, per cent of control (MAPK12 (human)): 89%; kinase still bound, per cent of control (CDKL1 (human)): 84%; kinase still bound, per cent of control (RPS6KA4 KD2 (human)): 79%; kinase still bound, per cent of control (CAMK1G (human)): 73%; kinase still bound, per cent of control (CAMK2G (human)): 100% |
